{
  "source": "patent US20250230193A1",
  "about": "“CYCLIC COMPOUND HAVING SELECTIVE KRAS INHIBITORY EFFECT ON HRAS AND NRAS” (CHUGAI SEIYAKU KABUSHIKI KAISHA, priority 2022, published 2025)",
  "key": {"[1]": {"target": "GDP-bound HRAS wild-type protein (Homo sapiens, UniProt P01112)", "sequence (P01112 whole entry)": "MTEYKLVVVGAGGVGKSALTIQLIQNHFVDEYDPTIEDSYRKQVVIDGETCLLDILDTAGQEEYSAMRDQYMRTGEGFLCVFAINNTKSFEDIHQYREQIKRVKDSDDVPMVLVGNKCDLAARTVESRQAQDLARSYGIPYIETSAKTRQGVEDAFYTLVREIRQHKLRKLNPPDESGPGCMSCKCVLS", "assay": "Binding to HRAS by surface plasmon resonance (SPR), Single Cycle Kinetics", "conditions": "SPR; for HRAS/KRAS (ratio of KD value for HRAS to KD value for KRAS) / HRAS/KRAS (ratio of KD value with respect to HRAS to KD value with respect to KRAS): GDP-bound HRAS wild-type vs GDP-bound KRAS wild-type"}, "[2]": {"target": "GDP-bound NRAS wild-type protein (Homo sapiens, UniProt P01111)", "sequence (P01111 whole entry)": "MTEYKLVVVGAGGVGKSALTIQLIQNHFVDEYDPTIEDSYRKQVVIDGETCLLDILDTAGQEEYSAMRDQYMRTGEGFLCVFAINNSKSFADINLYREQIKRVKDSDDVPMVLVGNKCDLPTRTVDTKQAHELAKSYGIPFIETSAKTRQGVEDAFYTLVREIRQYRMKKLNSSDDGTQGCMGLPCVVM", "assay": "Binding to NRAS by surface plasmon resonance (SPR), Single Cycle Kinetics", "conditions": "SPR; for NRAS/KRAS (ratio of KD value for NRAS to KD value for KRAS) / NRAS/KRAS (ratio of KD value with respect to NRAS to KD value with respect to KRAS): GDP-bound NRAS wild-type vs GDP-bound KRAS wild-type"}},
  "note": "*1 amine or outer side, *2 acyl side, *3 side chain or, on linkers, in order; H or OH if unused. Where a SMILES comes first, the peptide text is derived from it. Bridges are numbered along the chain shown (N, C = ends). [ ]: non-standard residue; d: D form. The star is where a group is joined. hPhe(3-Cl-4-CF3) = N[C@@H](CCc1ccc(C(F)(F)F)c(Cl)c1)C(=O)O; X11 = C=CCN([C@@H](Cc1ccc(C(F)(F)F)cc1)C(=O)[*:2])[*:1]; NPrPhe(4-CF3) = CCCN[C@@H](Cc1ccc(C(F)(F)F)cc1)C(=O)O; NMeGly(cPent) = CN[C@H](C(=O)O)C1CCCC1; Hyp = O=C(O)[C@@H]1C[C@@H](O)CN1; NMeD = CN[C@@H](CC(=O)O)C(=O)O; NMeL = CN[C@@H](CC(C)C)C(=O)O; Morpholide = C1CN(*)CCO1; NMeA = CN[C@@H](C)C(=O)O; Ac5c = NC1(C(=O)O)CCCC1; Aze = O=C(O)[C@@H]1CCN1; Ac4c = NC1(C(=O)O)CCC1; NEtG = CCNCC(=O)O; Sar = CNCC(=O)O",
  "data": [
    {"smiles": "C=CCN1C(=O)[C@@H]2CCN2C(=O)[C@H](C)N(C)C(=O)[C@H]([C@@H](C)CC)NC(=O)[C@H](CC(C)C)N(C)C(=O)C[C@@H](C(=O)N2CCOCC2)N(C)C(=O)[C@H](C2CCCC2)N(C)C(=O)C2(CCCC2)NC(=O)[C@@H]2CCCN2C(=O)[C@H](CCc2ccc(C(F)(F)F)c(Cl)c2)NC(=O)CN(C)C(=O)[C@@H]1Cc1ccc(C(F)(F)F)cc1", "note": "[PP0114] ([NMeL]I[NMeA][Aze][X11][Sar][hPhe(3-Cl-4-CF3)]P[Ac5c][NMeGly(cPent)][NMeD]-Morpholide; lactam N-11)", "values": [
      {"measurement": "HRAS/KRAS (ratio of KD for GDP-bound HRAS wild-type to KD for KRAS)", "setting": "[1]", "result": "C (A compound having a KD ratio of 0.1 or more and less than 3 is denoted as C)"},
      {"measurement": "NRAS/KRAS (ratio of KD for GDP-bound NRAS wild-type to KD for KRAS)", "setting": "[2]", "result": "C (A compound having a KD ratio of 0.1 or more and less than 3 is denoted as C)"}
    ]},
    {"smiles": "CCCN1C(=O)CN(C)C(=O)CNC(=O)[C@H]([C@@H](C)CC)NC(=O)[C@H](CC(C)C)N(C)C(=O)C[C@@H](C(=O)N(C)C)N(C)C(=O)[C@H](C2CCCC2)N(C)C(=O)C2(CCC2)NC(=O)[C@@H]2CCCN2C(=O)[C@H](CCc2ccc(C(F)(F)F)c(Cl)c2)NC(=O)CN(C)C(=O)[C@@H]1Cc1ccc(C(F)(F)F)cc1", "note": "[PP0418] ([NMeL]IG[Sar][NPrPhe(4-CF3)][Sar][hPhe(3-Cl-4-CF3)]P[Ac4c][NMeGly(cPent)][NMeD]-NMe2; lactam N-11)", "values": [
      {"measurement": "HRAS/KRAS (ratio of KD value with respect to GDP-bound HRAS wild-type protein to KD value with respect to KRAS)", "setting": "[1]", "result": "C (A compound having a KD ratio of 0.1 or more and less than 3 is denoted as C)"},
      {"measurement": "NRAS/KRAS (ratio of KD value with respect to GDP-bound NRAS wild-type protein to KD value with respect to KRAS)", "setting": "[2]", "result": "B (a compound having 3 or more and less than 10 is denoted as B)"}
    ]},
    {"smiles": "CCO[C@@H]1C[C@H]2C(=O)NC3(CCC3)C(=O)N(C)[C@@H](C(CC)CC)C(=O)N(C)[C@H](C(=O)N3CCCC3)CC(=O)N(C)[C@H]3CCCCC/C=C/c4ccc(cc4)C[C@@H](C(=O)N(C)CC(=O)N[C@@H](CCc4ccc(Cl)c(Cl)c4)C(=O)N2C1)N1CC/C=C\\C[C@@H](C1=O)N(C)C(=O)CN(C)C(=O)[C@H]([C@@H](C)CC)NC3=O", "note": "[PP3052]", "values": [
      {"measurement": "HRAS/KRAS (ratio of KD value with respect to GDP-bound HRAS wild-type protein to KD value with respect to KRAS)", "setting": "[1]; GDP-bound wild-type proteins", "result": "A (a compound having 10 or more and less than 20 is denoted as A)"},
      {"measurement": "NRAS/KRAS (ratio of KD value with respect to GDP-bound NRAS wild-type protein to KD value with respect to KRAS)", "setting": "[2]; GDP-bound wild-type proteins", "result": "AA (a compound having 20 or more is denoted as AA)"}
    ]},
    {"smiles": "CC[C@H](C)[C@@H]1NC(=O)[C@H](CC)N(C)C(=O)C[C@@H](C(=O)N(C)C)N(C)C(=O)[C@H](C2CCCC2)N(C)C(=O)C2(CCCC2)N(C)C(=O)[C@@H]2C[C@@H](C)CN2C(=O)[C@H](CCc2cc(F)c(C(F)(F)F)c(F)c2)NC(=O)CN(C)C(=O)[C@H](Cc2ccc(C)cc2)N2CC/C=C\\C[C@@H](C2=O)N(C)C(=O)CN(C)C1=O", "note": "[PP1812]", "values": [
      {"measurement": "HRAS/KRAS (ratio of KD value for HRAS to KD value for KRAS)", "setting": "[1]", "result": "A (a compound having 10 or more and less than 20 is denoted as A)"},
      {"measurement": "NRAS/KRAS (ratio of KD value for NRAS to KD value for KRAS)", "setting": "[2]", "result": "A (a compound having 10 or more and less than 20 is denoted as A)"}
    ]},
    {"smiles": "CCCN1C(=O)CN(C)C(=O)CN(CC)C(=O)[C@H]([C@@H](C)CC)NC(=O)[C@H](CC(C)C)N(C)C(=O)C[C@@H](C(=O)N(C)C)NC(=O)[C@H](C2CCCC2)N(C)C(=O)C2(CCC2)NC(=O)[C@@H]2C[C@@H](OCC)CN2C(=O)[C@H](CCc2ccc(C(F)(F)F)c(Cl)c2)NC(=O)CN(C)C(=O)[C@@H]1Cc1ccc(C(F)(F)F)cc1", "note": "[PP0372] ([NMeL]I[NEtG][Sar][NPrPhe(4-CF3)][Sar][hPhe(3-Cl-4-CF3)][Hyp](Et)[Ac4c][NMeGly(cPent)]D-NMe2; lactam N-11)", "values": [
      {"measurement": "HRAS/KRAS (ratio of KD for GDP-bound HRAS wild-type to KD for KRAS)", "setting": "[1]", "result": "B (a compound having 3 or more and less than 10 is denoted as B)"},
      {"measurement": "NRAS/KRAS (ratio of KD for GDP-bound NRAS wild-type to KD for KRAS)", "setting": "[2]", "result": "B (a compound having 3 or more and less than 10 is denoted as B)"}
    ]},
    {"smiles": "CCO[C@@H]1C[C@H]2C(=O)NC3(CC(C)(C)C3)C(=O)N(C)[C@@H](C(CC)CC)C(=O)N(C)[C@H](C(=O)N(C)C)CC(=O)N(C)[C@@H](CC3CCC3)C(=O)N[C@@H]([C@@H](C)CC)C(=O)N(C)CC(=O)N(C)[C@H]3C/C=C\\CCN(C3=O)[C@@H](Cc3ccc(C(F)(F)F)cc3)C(=O)N(C)CC(=O)N[C@@H](CCc3ccc(C(F)(F)F)c(OC)c3)C(=O)N2C1", "note": "[PP2164]", "values": [
      {"measurement": "HRAS/KRAS (ratio of KD value with respect to HRAS to KD value with respect to KRAS)", "setting": "[1]", "result": "A (a compound having 10 or more and less than 20 is denoted as A)"},
      {"measurement": "NRAS/KRAS (ratio of KD value with respect to NRAS to KD value with respect to KRAS)", "setting": "[2]", "result": "A (a compound having 10 or more and less than 20 is denoted as A)"}
    ]},
    {"smiles": "C#CCN1CC(=O)N(C)[C@H]2C/C=C\\CCN(C2=O)[C@@H](Cc2ccc(C(F)(F)F)cc2)C(=O)N(C)CC(=O)N[C@@H](CCc2ccc(C(F)(F)F)c(OC)c2)C(=O)N2C[C@H](OCC)C[C@H]2C(=O)NC2(CC(C)(C)C2)C(=O)N(C)[C@@H](C2CCCC2)C(=O)N(C)[C@H](C(=O)N(C)C)CC(=O)N(C)[C@@H](CCC)C(=O)N[C@@H]([C@@H](C)CC)C1=O", "note": "[PP2107]", "values": [
      {"measurement": "HRAS/KRAS (ratio of KD value with respect to HRAS to KD value with respect to KRAS)", "setting": "[1]", "result": "A (a compound having 10 or more and less than 20 is denoted as A)"},
      {"measurement": "NRAS/KRAS (ratio of KD value with respect to NRAS to KD value with respect to KRAS)", "setting": "[2]", "result": "A (a compound having 10 or more and less than 20 is denoted as A)"}
    ]},
    {"smiles": "CCCN(C)C(=O)[C@@H]1CC(=O)N(C)[C@@H](C2CCC2)C(=O)N[C@@H]([C@@H](C)CC)C(=O)N(C)CC(=O)N(C)[C@H]2C/C=C\\CCN(C2=O)[C@@H](Cc2ccc(C(F)(F)F)cc2)C(=O)N(C)CC(=O)N[C@@H](CCc2cc(F)c(C(F)(F)F)c(F)c2)C(=O)N2C[C@H](OCC)C[C@H]2C(=O)NC2(CCC2)C(=O)N(C)[C@@H](C2CCCC2)C(=O)N1C", "note": "[PP1998]", "values": [
      {"measurement": "HRAS/KRAS (ratio of KD value for HRAS to KD value for KRAS)", "setting": "[1]", "result": "B (a compound having 3 or more and less than 10 is denoted as B)"},
      {"measurement": "NRAS/KRAS (ratio of KD value for NRAS to KD value for KRAS)", "setting": "[2]", "result": "A (a compound having 10 or more and less than 20 is denoted as A)"}
    ]},
    {"smiles": "CC[C@H](C)[C@@H]1NC(=O)[C@H](COC)N(C)C(=O)C[C@@H](C(=O)N(CC)CC)N(C)C(=O)[C@H](C2CCCC2)N(C)C(=O)C2(CC(C)(C)C2)NC(=O)[C@@H]2C[C@H](C)CN2C(=O)[C@H](CCc2ccc(C(F)(F)F)c(OC)c2)NC(=O)CN(C)C(=O)[C@H](Cc2ccc(C)cc2)N2CC/C=C\\C[C@@H](C2=O)N(C)C(=O)CN(C)C1=O", "note": "[PP2441]", "values": [
      {"measurement": "HRAS/KRAS (ratio of KD value with respect to HRAS to KD value with respect to KRAS)", "setting": "[1]", "result": "A (a compound having 10 or more and less than 20 is denoted as A)"},
      {"measurement": "NRAS/KRAS (ratio of KD value with respect to NRAS to KD value with respect to KRAS)", "setting": "[2]", "result": "AA (a compound having 20 or more is denoted as AA)"}
    ]},
    {"smiles": "CCCN1C(=O)CN(C)C(=O)CN(CC)C(=O)[C@H]([C@@H](C)CC)NC(=O)[C@H](CC(C)C)N(C)C(=O)C[C@@H](C(=O)N(C)C)N(C)C(=O)[C@H](C2CCCC2)N(C)C(=O)C2(CCCC2)NC(=O)[C@@H]2C[C@@H](OCC)CN2C(=O)[C@H](CCc2ccc(C(F)(F)F)c(Cl)c2)NC(=O)CN(C)C(=O)[C@@H]1Cc1ccc(C(F)(F)F)cc1", "note": "[PP0427] ([NMeL]I[NEtG][Sar][NPrPhe(4-CF3)][Sar][hPhe(3-Cl-4-CF3)][Hyp](Et)[Ac5c][NMeGly(cPent)][NMeD]-NMe2; lactam N-11)", "values": [
      {"measurement": "HRAS/KRAS (ratio of KD value with respect to GDP-bound HRAS wild-type protein to KD value with respect to KRAS)", "setting": "[1]", "result": "C (A compound having a KD ratio of 0.1 or more and less than 3 is denoted as C)"},
      {"measurement": "NRAS/KRAS (ratio of KD value with respect to GDP-bound NRAS wild-type protein to KD value with respect to KRAS)", "setting": "[2]", "result": "B (a compound having 3 or more and less than 10 is denoted as B)"}
    ]},
    {"smiles": "CC[C@H](C)[C@@H]1NC(=O)[C@H](C2CC2)N(C)C(=O)C[C@@H](C(=O)N(C)C)N(C)C(=O)[C@H](C2CCCC2)N(C)C(=O)C2(CCC2)N(C)C(=O)[C@@H]2CCCN2C(=O)[C@H](CCc2cc(F)c(C(F)(F)F)c(F)c2)NC(=O)CN(C)C(=O)[C@H](Cc2ccc(C)cc2)N2CC/C=C\\C[C@@H](C2=O)N(C)C(=O)CN(C)C1=O", "note": "[PP1784]", "values": [
      {"measurement": "HRAS/KRAS (ratio of KD value for HRAS to KD value for KRAS)", "setting": "[1]", "result": "B (a compound having 3 or more and less than 10 is denoted as B)"},
      {"measurement": "NRAS/KRAS (ratio of KD value for NRAS to KD value for KRAS)", "setting": "[2]", "result": "A (a compound having 10 or more and less than 20 is denoted as A)"}
    ]}
  ]
}
